Earlier results, collected in patent US20100093659A1, “POLYVALENT BIOCONJUGATES” (GLYKOS FINLAND OY, priority 2006, published 2010).

Test system: Helicobacter pylori
Details: monomeric form

CC(=O)N[C@H]1[C@H]([C@H](O)[C@H](O)CO)O[C@@](O[C@H]2[C@@H](O)[C@@H](CO)O[C@@H](O[C@H]3[C@H](O)[C@@H](O)C(O)O[C@@H]3CO)[C@@H]2O)(C(=O)O)C[C@@H]1O (stereo partly shown) [3′-sialyllactose]
concentrations at which adhesion of Helicobacter pylori to gastrointestinal epithelial cells was inhibited: millimolar
